Test results: paper PMC12203697, “Bioactive constituents from the edible seaweed Halymenia hawaiiana (Rhodophyta)” (Pharmaceutical Biology, 2025)

System: ROS/RNS generation in RAW 264.7 cells
Test: Intracellular ROS/RNS levels in LPS-induced RAW 264.7 cells (H2DCF-DA)
Format: cell-based
Settings: Mus musculus, RAW264.7; RAW 264.7 cells, H2DCF-DA dye, LPS 1 μg/mL; read-out: IC50, inhibition of LPS-induced ROS/RNS generation
Procedure: To measure the formation of intracellular ROS and RNS, we utilized the fluorogenic dye 2′,7′-dichlorodihydrofluorescein diacetate (Cat. No. 4091-99-0, H2DCF-DA, Abcam, Boston, MA, USA). This dye detects hydrogen peroxide, peroxyl radicals, and peroxynitrite anions (Kwon et al. [2019]). In brief, RAW 264.7 cells were seeded into a black 96-well plate (Cat. No. 165305, Thermo Fisher, USA) at 4 × 10^4 cells per well and incubated for 24 hr at 37 °C in 5% CO2. Afterward, the cells were treated with or without a sample for 4 hr before adding 1 μg/mL LPS (Cat. No. 00-4976-93, Thermo Fisher, USA) for 20 hr. Once this incubation was complete, the cells were washed twice with fetal bovine serum (FBS)-free media (Cat. No. A5256701, Thermo Fisher, USA) and stained with 10 μM H2DCF-DA (Cat. No. D399, Thermo Fisher, USA) in FBS-free media for 30 min at 37 °C, protected from light. Next, the dye-containing media was discarded, and the cells were washed twice with fresh serum-free media. The relative fluorescent intensity of the cells was measured using a fluorescence plate reader (Synergy H1, BioTeK, Winooski, VT, USA) with excitation/emission at 485 nm/535 nm. Curcumin (Cat. No. C1386-5G, Millipore Sigma, Burlington, MA, USA), a natural phenolic compound with antioxidant activity, was used as positive control. All samples were tested in triplicates. A sulforhodamine B (SRB) assay was conducted to assess cellular viability under a similar experimental setup. The final percentage of inhibition of ROS/RNS generation was calibrated using the % of cell viability.

COc1cc(/C=C/C(=O)CC(=O)/C=C/c2ccc(O)c(OC)c2)ccc1O [Curcumin, reference compound]
IC50: 7.6 ± 0.1 µM
